Measured values taken from US20250263408A1 (Uniquest Pty Ltd, priority 2022, published 2025).

How the values were obtained:
[1] = tested on: Ba/F3-WT (wild type) cells; experiment: Ba/F3 Proliferation Assay, Ba/F3-WT (wild type) cells with mIL-3 (Resazurin); format: cell-based; settings: Mus musculus, BaF3, 48 h, Ba/F3-WT cells +mIL-3, 48-hour incubation
[2] = Brain Penetration Assays: Mouse Pharmacokinetics (plasma and brain levels after oral dose); format: in vivo; settings: male, CD-1, mouse, mice, 1 hour post oral dose of 10 mg/kg; for concentration at 1 h: brain (free, unbound); for Kp at 1 h: brain / plasma (unbound), read-out: Kpu,u (ratio of unbound brain levels to unbound plasma levels)
Description: Male CD-1 mice (6-8 weeks of age, 3 animals per timepoint) were dosed via oral gavage (10 mL/kg) with compound (10 mg/kg, 0.5% methylcellulose in water). Blood samples were taken either non-terminal via saphenous vein or terminal via cardiac puncture and stored in 1.5 mL Eppendorf tubes containing 0.010 mL of 10% K2EDTA, mixed gently and placed in ice before centrifugation. Blood was centrifuged at 10,000 r.p.m. for 2 minutes, plasma harvested and stored at −80° C. Following blood collection at the terminal time points, animals were sacrificed with C02 and brains quickly removed, rinsed with cold saline (0.9% NaCl), surface vasculature ruptured, blotted with dry gauze or tissue and weighed. The whole brain was homogenized in 1.0 mL ice cold phosphate-buffered saline, pH 7.4 and the homogenates stored at −80° C. Compound concentrations were quantified in plasma and brain tissue by LC-MS/MS using a partially validated bioanalytical method.
(§1) The Rapid Equilibrium Dialysis (RED) method was employed with plasma (200 μL, BioIVT, USA) in phosphate buffered saline (PBS, 350 μL) incubated with compound (1 μM) at 37° C. for 5 hours shaking at 450 r.p.m. Acetonitrile (3 volumes) was added and the sample centrifuged for 5 minutes and 1050 r.p.m. then for 15 minutes at 4000 r.p.m. Compound concentrations were quantified via LC-MS/MS from supernatant and free drug was calculated.
as §1, with “RED” for “Rapid Equilibrium Dialysis (RED)”, “mouse brain homogenate (10% w/v prepared in-house))” for “plasma (200 μL, BioIVT, USA) in phosphate buffered saline (PBS, 350 μL)”, “14” for “15”

Syk = target: T1, Syk (Homo sapiens, UniProt P43405); experiment: Syk Biochemical Assay (ADP-Glo luminescence); settings: ATP 40 μM final, 60 minutes, read-out: SYK Biochem IC50
T1 construct: purchased Promega

Ba/F3-Syk cells = target: T2, Ba/F3-Syk cells (Homo sapiens, UniProt P43405); experiment: Ba/F3 Proliferation Assay, Ba/F3-Syk cells (Resazurin); format: cell-based; settings: 48-hour incubation
T2 construct: fused on or other part: Possible but unprinted fusion partner: TEL (ETV6), the usual partner for Ba/F3 lines transformed by Syk; Nothing on a partner is printed

For `C[C@@H](Oc1nc(-c2ccn(C)c2)cc2ncccc12)[C@@H]1CNCCO1` [Compound 2.44, 7-(1-methyl-1H-pyrrol-3-yl)-5-[(1R)-1-[(2S)-morpholin-2-yl]ethoxy]-1,6-naphthyridine], the EC50 [1] was 2110 nM, the concentration at 1 h [2] was ≤ 10 nM and the Kp at 1 h [2] was > 0.3. For the same compound, the IC50 (Syk) was 31 nM and the EC50 (Ba/F3-Syk cells) was 53.1 nM.
With `Cn1ccc(-c2cc3ncccc3c(OC[C@@H]3CNCC(C)(C)O3)n2)c1` [Compound 2.51, 5-{[(2S)-6,6-dimethylmorpholin-2-yl]methoxy}-7-(1-methyl-1H-pyrrol-3-yl)-1,6-naphthyridine] the EC50 [1] was 6070 nM, the concentration at 1 h [2] was ≤ 25 nM and the Kp at 1 h [2] was > 0.3. It also gave an IC50 (Syk) of 8.1 nM and an EC50 (Ba/F3-Syk cells) of 45.5 nM.
In the case of `CC(C)n1cc(-c2cc3ncccc3c(O[C@H](C)[C@@H]3CNCCO3)n2)cn1` [Compound 2.66, 5-[(1R)-1-[(2S)-morpholin-2-yl]ethoxy]-7-[1-(propan-2-yl)-1H-pyrazol-4-yl]-1,6-naphthyridine], the EC50 [1] is reported as 1020 nM, the concentration at 1 h [2] is reported as ≤ 25 nM and the Kp at 1 h [2] is reported as 0.05 to 0.1. The EC50 (Ba/F3-Syk cells) was 14.5 nM.
Work on `C[C@@H](Oc1nc(-c2ccn(CC(F)F)c2)cc2ncccc12)[C@@H]1CNCCO1` [Compound 6.30, 7-[1-(2,2-difluoroethyl)-1H-pyrrol-3-yl]-5-[(1R)-1-[(2S)-morpholin-2-yl]ethoxy]-1,6-naphthyridine] yielded an EC50 [1] of 1390 nM, an IC50 (Syk) of 14.1 nM and an EC50 (Ba/F3-Syk cells) of 27.7 nM.
`CC1(C)CNC[C@@H](COc2cc(-c3ccn(CC(F)F)c3)cc3ncccc23)O1` [Compound 7.6, 7-[1-(2,2-difluoroethyl)-1H-pyrrol-3-yl]-5-{[(2S)-6,6-dimethylmorpholin-2-yl]methoxy}quinoline] gave an EC50 [1] of 1770 nM, an IC50 (Syk) of 17.6 nM and an EC50 (Ba/F3-Syk cells) of 28.5 nM.
`CC(C)n1ccc(-c2cc(OC[C@@H]3CNCCCO3)c3cccnc3c2)c1` [Compound 7.10, 5-{[(2S)-1,4-oxazepan-2-yl]methoxy}-7-[1-(propan-2-yl)-1H-pyrrol-3-yl]quinoline] showed an EC50 [1] of 3880 nM, an IC50 (Syk) of 36.7 nM and an EC50 (Ba/F3-Syk cells) of 44.7 nM.
With `c1cnc2cc(-c3ccn(C4COC4)c3)cc(OC[C@@H]3CNCCO3)c2c1` [Compound 7.12, 5-{[(2S)-morpholin-2-yl]methoxy}-7-[1-(oxetan-3-yl)-1H-pyrrol-3-yl]quinoline] the EC50 [1] was 1560 nM, the IC50 (Syk) was 29.3 nM and the EC50 (Ba/F3-Syk cells) was 23.3 nM.
Compound `COCCn1ccc(-c2cc(OC[C@@H]3CNCC4(CC4)O3)c3cccnc3c2)c1` [Compound 7.14, 7-[1-(2-methoxyethyl)-1H-pyrrol-3-yl]-5-{[(5S)-4-oxa-7-azaspiro[2.5]octan-5-yl]methoxy}quinoline] has an EC50 [1] of 3210 nM, an IC50 (Syk) of 51.2 nM and an EC50 (Ba/F3-Syk cells) of 22.5 nM.
For `CC(C)n1ccc(-c2cc(OC[C@@H]3CNCC(C)(C)O3)c3nccnc3c2)c1` [Compound 8.3, 5-{[(2S)-6,6-dimethylmorpholin-2-yl]methoxy}-7-[1-(propan-2-yl)-1H-pyrrol-3-yl]quinoxaline], the EC50 [1] was 833 nM, the IC50 (Syk) was 5.7 nM and the EC50 (Ba/F3-Syk cells) was 5.6 nM.
In the case of `COCCn1ccc(-c2cc(OC[C@@H]3CNCC(C)(C)O3)c3nccnc3c2)c1` [Compound 8.4, 5-{[(2S)-6,6-dimethylmorpholin-2-yl]methoxy}-7-[1-(2-methoxyethyl)-1H-pyrrol-3-yl]quinoxaline], the EC50 [1] is reported as 645 nM, the IC50 (Syk) is reported as 7.4 nM and the EC50 (Ba/F3-Syk cells) is reported as 8.2 nM.
Work on `CC1(C)CNC[C@@H](COc2cc(-c3ccn(CC(F)F)c3)cc3nccnc23)O1` [Compound 8.5, 7-[1-(2,2-difluoroethyl)-1H-pyrrol-3-yl]-5-{[(2S)-6,6-dimethylmorpholin-2-yl]methoxy}quinoxaline] yielded an EC50 [1] of 735 nM, an IC50 (Syk) of 5.2 nM and an EC50 (Ba/F3-Syk cells) of 4.5 nM.
`CC(C)n1ccc(-c2cc(OC[C@@H]3CNCCO3)c3nccnc3c2)c1` [Compound 8.6, 5-{[(2S)-morpholin-2-yl]methoxy}-7-[1-(propan-2-yl)-1H-pyrrol-3-yl]quinoxaline] showed an EC50 [1] of 969 nM, an IC50 (Syk) of 10.8 nM and an EC50 (Ba/F3-Syk cells) of 6.97 nM.
Compound `FC(F)Cn1ccc(-c2cc(OC[C@@H]3CNCCO3)c3nccnc3c2)c1` [Compound 8.8, 7-[1-(2,2-difluoroethyl)-1H-pyrrol-3-yl]-5-{[(2S)-morpholin-2-yl]methoxy}quinoxaline] has an EC50 [1] of 1270 nM, an IC50 (Syk) of 11.2 nM and an EC50 (Ba/F3-Syk cells) of 16.2 nM.
`CC(C)n1ccc(-c2cc(OC[C@@H]3CNCCCO3)c3nccnc3c2)c1` [Compound 8.10, 5-{[(2S)-1,4-oxazepan-2-yl]methoxy}-7-[1-(propan-2-yl)-1H-pyrrol-3-yl]quinoxaline] gave an EC50 [1] of 1620 nM, an IC50 (Syk) of 11.8 nM and an EC50 (Ba/F3-Syk cells) of 10.7 nM.
`CC(C)n1ccc(-c2cc(OC[C@@H]3CNCC4(CCC4)O3)c3nccnc3c2)c1` [Compound 8.17, 5-{[(6S)-5-oxa-8-azaspiro[3.5]nonan-6-yl]methoxy}-7-[1-(propan-2-yl)-1H-pyrrol-3-yl]quinoxaline] showed an EC50 [1] of 684 nM, an IC50 (Syk) of 14.7 nM and an EC50 (Ba/F3-Syk cells) of 4.3 nM.
`FC(F)Cn1ccc(-c2cc(OC[C@@H]3CNCC4(CCC4)O3)c3nccnc3c2)c1` [Compound 8.19, 7-[1-(2,2-difluoroethyl)-1H-pyrrol-3-yl]-5-{[(6S)-5-oxa-8-azaspiro[3.5]nonan-6-yl]methoxy}quinoxaline] gave an EC50 [1] of 872 nM, an IC50 (Syk) of 6.5 nM and an EC50 (Ba/F3-Syk cells) of 6.4 nM.
In the case of `C1=C(c2cc3ncccc3c(OC[C@@H]3CNCCO3)n2)CCC1` [Compound 10.1, 7-(cyclopent-1-en-1-yl)-5-{[(2S)-morpholin-2-yl]methoxy}-1,6-naphthyridine], the EC50 [1] is reported as > 10000 nM, the IC50 (Syk) is reported as 209 nM and the EC50 (Ba/F3-Syk cells) is reported as 487 nM.
In the case of `CC(C)n1cc(-c2cc(OC[C@@H]3CNCC4(CCC4)O3)c3cccnc3c2)cn1` [Compound 11.8, 5-{[(6S)-5-oxa-8-azaspiro[3.5]nonan-6-yl]methoxy}-7-[1-(propan-2-yl)-1H-pyrazol-4-yl]quinoline], the EC50 [1] is reported as 551 nM, the IC50 (Syk) is reported as 14.7 nM and the EC50 (Ba/F3-Syk cells) is reported as 7.4 nM.
`C[C@@H]1CNC[C@@H](COc2cc(-c3ccn(C(C)(C)C)c3)cc3nccnc23)O1` [Compound 12.8, 7-(1-tert-butyl-1H-pyrrol-3-yl)-5-{[(2S,6R)-6-methylmorpholin-2-yl]methoxy}quinoxaline] gave an EC50 [1] of 703 nM, an IC50 (Syk) of 5.1 nM and an EC50 (Ba/F3-Syk cells) of 1.3 nM.
For `CC(C)(C)n1cc(-c2cc3ncccc3c(OC[C@@H]3CNC[C@H](C(F)(F)F)O3)n2)cn1` [Compound 13.13, 7-(1-tert-butyl-1H-pyrazol-4-yl)-5-([(2S,6R)-6-(trifluoromethyl)morpholin-2-yl]methoxy}-1,6-naphthyridine], the EC50 [1] was 1780 nM, the IC50 (Syk) was 16.3 nM and the EC50 (Ba/F3-Syk cells) was 41.8 nM.
Compound `CC(C)(C)n1cc(-c2cc3ncccc3c(OC[C@@H]3CNC[C@@H](C(F)(F)F)O3)n2)cn1` [Compound 13.14, 7-(1-tert-butyl-1H-pyrazol-4-yl)-5-{[(2S,6S)-6-(trifluoromethyl)morpholin-2-yl]methoxy}-1,6-naphthyridine] has an EC50 [1] of 1380 nM, an IC50 (Syk) of 35 nM and an EC50 (Ba/F3-Syk cells) of 233 nM.
`CC(C)(C)n1cc(-c2cc3ncccc3c(OC[C@@H]3CNCC4(COC4)O3)n2)cn1` [Compound 13.15, 7-(1-tert-butyl-1H-pyrazol-4-yl)-5-{[(6S)-2,5-dioxa-8-azaspiro[3.5]nonan-6-yl]methoxy}-1,6-naphthyridine] showed an EC50 [1] of 1910 nM, an IC50 (Syk) of 19.8 nM and an EC50 (Ba/F3-Syk cells) of 47.2 nM.
In the case of `C[C@@H]1NCCO[C@@H]1COc1nc(-c2cnn(C3(C)CC3)c2)cc2ncccc12` [Compound 13.16, 7-[1-(1-methylcyclopropyl)-1H-pyrazol-4-yl]-5-{[(2S,3S)-3-methylmorpholin-2-yl]methoxy}-1,6-naphthyridine], the EC50 [1] is reported as 518 nM, the IC50 (Syk) is reported as 31.7 nM and the EC50 (Ba/F3-Syk cells) is reported as 43 nM.
`CCc1ccnc2cc(-c3cnn(C(C)(C)C)c3)nc(OC[C@@H]3CNCC(C)(C)O3)c12` [Compound 14.14, 7-(1-tert-butyl-1H-pyrazol-4-yl)-5-{[(2S)-6,6-dimethylmorpholin-2-yl]methoxy}-4-ethyl-1,6-naphthyridine] showed an EC50 [1] of 1100 nM, an IC50 (Syk) of 33.6 nM and an EC50 (Ba/F3-Syk cells) of 20.6 nM.
`COc1ccnc2cc(-c3cnn(C(C)(C)C)c3)nc(OC[C@@H]3CNCC(C)(C)O3)c12` [Compound 14.15, 7-(1-tert-butyl-1H-pyrazol-4-yl)-5-{[(2S)-6,6-dimethylmorpholin-2-yl]methoxy}-4-methoxy-1,6-naphthyridine] showed an EC50 [1] of 519 nM, an IC50 (Syk) of 21.1 nM and an EC50 (Ba/F3-Syk cells) of 44 nM.
